Laboratory results as given in the supplement of paper PMC10307832.

Legend:
Test in all cases: relative viability (nuclei count vs DMSO), 5 days (fraction); higher = more cells survive
[1] = compound: CCN(CC)CCCCNc1ncc2cc(-c3cc(OC)cc(OC)c3)c(NC(=O)NC(C)(C)C)nc2n1
Method in brief: (§1)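 Acceptance criteria were a control CV below 25% and at least one doubling per plate. Lung cancer cell lines in 1536-well plates got five library-drug doses (not always all listed) √10 apart by pinning and were left 5 days with no medium change. Viability divides treated-well nuclei by vehicle-well nuclei and is the median across plates. Nuclei were counted by MetaXpress from 4× Hoechst images.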

[2] = compound: O=c1cc(-c2cccc3c2Sc2ccccc2S3)oc(N2CCOCC2)c1
Method in brief: as §1

[3] = compound: C1COCCN1C2=CC(=O)C3=C(O2)C(=CC=C3)C4=CC=CC5=C4SC6=CC=CC=C56
Method in brief: as §1

Zibotentan = compound: COc1nc(C)cnc1NS(=O)(=O)c1cccnc1-c1ccc(-c2nnco2)cc1 [Zibotentan]
Method in brief: as §1

PRIMA-1MET = compound: COCC1(CO)C(=O)C2CCN1CC2 [PRIMA-1MET]
Method in brief: as §1

| Cell Line | relative viability ([1]; 0.01 µM) | relative viability ([1]; 0.03162 µM) | relative viability ([1]; 0.1 µM) | relative viability ([1]; 0.3162 µM) | relative viability ([1]; 1 µM) | relative viability ([2]; 0.08 µM) | relative viability ([2]; 0.253 µM) | relative viability ([2]; 0.8 µM) | relative viability ([2]; 2.53 µM) | relative viability ([2]; 8 µM) | relative viability ([3]; 0.01 µM) | relative viability ([3]; 0.03162 µM) | relative viability ([3]; 0.1 µM) | relative viability ([3]; 0.3162 µM) | relative viability ([3]; 1 µM) | relative viability (Zibotentan; 0.08 µM) | relative viability (Zibotentan; 0.253 µM) | relative viability (Zibotentan; 0.8 µM) | relative viability (Zibotentan; 2.53 µM) | relative viability (PRIMA-1MET; 0.2 µM) | relative viability (PRIMA-1MET; 0.6325 µM) | relative viability (PRIMA-1MET; 2 µM) | relative viability (PRIMA-1MET; 6.325 µM) | relative viability (PRIMA-1MET; 20 µM) |
| --- | --- | --- | --- | --- | --- | --- | --- | --- | --- | --- | --- | --- | --- | --- | --- | --- | --- | --- | --- | --- | --- | --- | --- | --- |
| 201T | 0.976 | 0.972 | 1.01 | 0.954 | 0.898 | 0.952 | 0.971 | 0.844 | 0.944 | 1.03 | 0.988 | 0.989 | 1.01 | 0.954 | 0.953 | 1.01 | 0.968 | 0.986 | 0.978 | 1.07 | 0.93 | 0.758 | 1.01 | 0.987 |
| A549 | 0.927 | 0.97 | 1.15 | 1.06 | 0.876 | 0.946 | 1.22 | 1.1 | 0.991 | 1.07 | 1.01 | 0.96 | 1.01 | 0.973 | 0.914 | 1.04 | 0.938 | 0.931 | 1 | 1.1 | 0.893 | 0.944 | 1.01 | 0.891 |
| A-427 | 1.01 | 0.896 | 1.07 | 1.12 | 0.844 | 0.958 | 1.03 | 1.09 | 0.814 | 1.06 | 0.967 | 1.05 | 0.923 | 0.979 | 1 | 1.08 | 0.972 | 0.942 | 1.01 | 1.01 | 0.836 | 0.831 | 1.02 | 0.855 |
| ABC-1 | 0.957 | 0.838 | 1.25 | 1.07 | 0.869 | 0.922 | 1.09 | 0.808 | 0.976 | 1.12 | 0.917 | 1.16 | 1.03 | 1.04 | 0.954 | 1.06 | 0.753 | 0.96 | 1 | 0.953 | 0.621 | 0.903 | 0.829 | 0.247 |
| BEN | 1 | 0.89 | 1 | 1.01 | 0.816 | 0.876 | 0.931 | 0.946 | 0.996 | 1.18 | 0.919 | 1.04 | 0.931 | 1.04 | 0.897 | 1.06 | 0.782 | 0.936 | 0.941 | 0.982 | 0.825 | – | 1.06 | 1.01 |
| CAL-12T | 0.901 | 1.03 | 1.04 | 1.04 | 0.974 | 0.94 | 1.06 | 0.952 | 0.955 | 0.883 | 0.924 | 0.991 | 1.03 | 1.05 | 0.854 | 0.965 | 0.918 | 0.942 | 1.03 | 0.946 | 0.924 | 1.02 | 0.934 | 0.352 |
| COR-L23 | 1.1 | 1.14 | 1.33 | 1.16 | 1.11 | 1.03 | 1.37 | 1.12 | 1.03 | 1.14 | 1 | 1 | 1.01 | 1.02 | 1.06 | 1.06 | 1.06 | 1.01 | 1.03 | 1.33 | 0.936 | 0.94 | 1.11 | 0.0329 |
| COR-L 105 | 0.838 | 0.914 | 1.1 | 1.06 | 0.835 | 0.811 | 1.04 | 0.871 | 0.835 | 0.978 | 0.88 | 0.926 | 0.943 | 0.899 | 0.914 | 1.01 | 0.861 | 0.959 | 1.02 | 1 | 0.899 | 0.818 | 0.835 | 0.175 |
| Calu-6 | 0.989 | 1.1 | 1.11 | 1.11 | 1.02 | 1 | 1.1 | 1.05 | 0.955 | 0.924 | 1.05 | 1.06 | 1.08 | 1.01 | 1.05 | 1.04 | 0.932 | 0.979 | 1 | 1.06 | 0.977 | 0.97 | 0.948 | 0.812 |
| ChaGo-K-1 | 1.02 | 0.967 | 1.11 | 1.02 | 0.941 | 0.975 | 0.953 | 1.03 | 0.935 | 1.08 | 1.03 | 0.956 | 0.95 | 1.04 | 0.954 | 1.04 | 0.983 | 0.743 | 0.943 | 0.994 | 0.814 | 0.98 | 1 | 0.884 |
| EBC-1 | 1.11 | 0.988 | 1.06 | 1.24 | 0.953 | 1.02 | 1.07 | 0.98 | 0.929 | 0.779 | 1.04 | 0.965 | 0.928 | 0.932 | 0.917 | 0.944 | 0.991 | 1.06 | 1.09 | 1.09 | 0.998 | 0.933 | 0.987 | 0.811 |
| EKVX | 0.888 | 0.877 | 1.02 | 1.13 | 0.981 | 0.974 | 0.997 | 0.903 | 0.888 | 1.03 | 0.964 | 0.966 | 1.04 | 0.926 | 0.924 | 0.957 | 0.944 | 0.963 | 1.03 | 1.17 | 0.905 | 0.731 | 0.975 | 0.885 |
